Publication PMC6040060, “Identification of a new alanine racemase in Salmonella Enteritidis and its contribution to pathogenesis” (Gut Pathogens, 2018)
Read-outs that look alike come from different tables or passages of the source.

Assays:
DadX [1] = tested on: T1, DadX; test: coupled spectrophotometric assay, NADH at […] nm (L-alanine dehydrogenase); assay type: biochemical, Salmonella enterica subsp. enterica serovar Enteritidis; settings: D to L direction; 10 μM PLP, 2.5 mM NAD+, Tris-HCl pH 8.0, 37 °C
T1 construct: pET28a-dadX (NheI/XhoI), N-terminal 6xHis tag, E. coli BL21(DE3) Codon Plus, Ni-NTA purified

SEN3897 [2] = tested on: T2, SEN3897; settings: read-out: D → L / Km; D to L direction; 10 μM PLP, 2.5 mM NAD+, Tris-HCl pH 8.0, 37 °C
T2 construct: gene alr

DadX [3] = tested on: T1, DadX; test: coupled spectrophotometric assay, NADH at […] nm (D-amino acid aminotransferase / L-lactate dehydrogenase); assay type: biochemical, Salmonella enterica subsp. enterica serovar Enteritidis; settings: L to D direction; 10 μM PLP, Tris-HCl pH 8.0, 37 °C
SEN3897 [4] = tested on: T2, SEN3897; settings: read-out: L → D / Km; L to D direction; 10 μM PLP, Tris-HCl pH 8.0, 37 °C

| Compound | Km (DadX [1]) [mM] | Km (SEN3897 [2]) [mM] | Km (DadX [3]) [mM] | Km (SEN3897 [4]) [mM] |
| --- | --- | --- | --- | --- |
| C[C@@H](N)C(=O)O [D-alanine] | 52.8 ± 3 | 35 ± 6 | – | – |
| C[C@H](N)C(=O)O [L-alanine] | – | – | 58.9 ± 2.7 | 89.1 ± 10.2 |
